In ChEMBL document CHEMBL3779780, “Chroman-4-one and chromone based somatostatin β-turn mimetics” (Eur J Med Chem, 2016):

Assays:
[1] = molecular target: T1, Somatostatin receptor type 2 (Homo sapiens, UniProt P30874); assay: Binding affinity to human sst2 receptor
[2] = molecular target: T2, Somatostatin receptor type 4 (Homo sapiens, UniProt P31391); assay: Binding affinity to human sst4 receptor
[3] = molecular target: T1, Somatostatin receptor type 2; assay: Displacement of [125I]tyr11-SRIF from human sst2 receptor after 60 mins by liquid scintillation counting method
[4] = molecular target: T2, Somatostatin receptor type 4; assay: Displacement of [125I]tyr11-SRIF from human sst4 receptor after 60 mins by liquid scintillation counting method
[5] = molecular target: T2, Somatostatin receptor type 4; assay: Displacement of [125I]-SRIF14 from human sst4 receptor

T1 sequence (P30874 whole entry): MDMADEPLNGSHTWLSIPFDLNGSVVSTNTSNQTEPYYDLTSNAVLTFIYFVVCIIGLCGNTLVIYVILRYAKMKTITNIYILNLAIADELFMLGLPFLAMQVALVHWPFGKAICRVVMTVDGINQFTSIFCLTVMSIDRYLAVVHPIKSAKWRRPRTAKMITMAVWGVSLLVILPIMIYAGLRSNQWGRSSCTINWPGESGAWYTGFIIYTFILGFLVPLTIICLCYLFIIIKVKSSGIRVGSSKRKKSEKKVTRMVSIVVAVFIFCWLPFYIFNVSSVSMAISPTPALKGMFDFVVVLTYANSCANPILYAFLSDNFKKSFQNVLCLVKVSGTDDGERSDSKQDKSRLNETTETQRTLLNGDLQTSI
T2 sequence (P31391 whole entry): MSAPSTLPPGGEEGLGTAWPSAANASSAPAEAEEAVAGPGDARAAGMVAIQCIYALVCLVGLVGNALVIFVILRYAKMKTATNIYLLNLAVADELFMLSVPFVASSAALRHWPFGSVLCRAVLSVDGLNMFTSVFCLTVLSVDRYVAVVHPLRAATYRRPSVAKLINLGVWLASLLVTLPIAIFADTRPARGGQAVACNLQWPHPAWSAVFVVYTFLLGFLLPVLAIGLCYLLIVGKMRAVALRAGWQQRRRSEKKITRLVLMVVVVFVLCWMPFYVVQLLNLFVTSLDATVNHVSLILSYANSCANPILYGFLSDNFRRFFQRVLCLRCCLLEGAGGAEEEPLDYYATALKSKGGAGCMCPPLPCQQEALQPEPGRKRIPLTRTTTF

NCCCCCOc1ccccc1OCCc1c[nH]c2ccccc12
Ki [1]: 4690 nM | Ki [2]: 2020 nM

NCCCc1cc(Cl)cc2c(=O)cc(CCc3cccc4ccccc34)oc12
Ki [3]: 2660 nM | Ki [4]: 1170 nM

CC(C)CC[C@]1(Cc2ccccc2)NC=C([C@@]2(Cc3ccccc3)NC=C([C@]3(CCCN)NC=C([C@@]4(CC(C)C)NC=C(Cc5ccccc5)C4=O)C3=O)C2=O)C1=O
Ki [5]: 2050 nM

NCCCc1cc(Cl)cc2c1OC(CCc1cccc3ccccc13)CC2=O (racemic)
Ki [3]: 6850 nM | Ki [4]: 7090 nM
